Test results from patent US20120238532A1, “TREATMENT OF HUMAN OSTEOSARCOMA” (CEDARS-SINAI MEDICAL CENTER, priority 2009, published 2012).

Assays:
MG-63 cells [1] = assay: MTT assay, MG-63 (dose-response, pulse-exposure, combination); assay type: cell-based, human; conditions: Homo sapiens, MTT, 48 hours of exposure, read-out: ED50 (the source's name)
Method: 7 human OS cell lines (U2OS, G292, MG-63, HT-161, HOS, SAOS-2, and SJSA) were used in the study. Each cell line except HT-161 was obtained from the American Type Culture Collection (ATCC, Rockville, Md.). HT-161 was obtained from Dr. Emil Bogenmann (13). All cell lines were tested and authenticated prior to use according to cell line verification test recommendations by ATCC. OS cell lines were maintained in DMEM medium (Mediatech Inc., Herndon, Va.) supplemented with 10% fetal bovine serum (FBS; Atlanta Biological, Lawrenceville, Ga.) in a humidified incubator at 37° C. supplied with 5% CO2. Only the cells in exponential growth phase were used in the study.
Cell growth and survival were measured by 3-(4,5-dimethylthiazol-2-yl)-2,5-diphenyltetrazolium bromide (MTT) assay. […] After 48 hours of incubation, 10 μl of 5 mg/ml MTT solution (Sigma-Aldrich, St. Louis, Mo.) was added to each well and incubated further for 2 hours. […] For pulse-exposure experiments, MG-63 and SAOS-2 cells were seeded in 96-well plates and exposed to CuB at their ED50. After 2, 9, and 20 hours of exposure, cells were washed twice with PBS and incubated further in CuB-free media. Cell growth was checked by MTT assay at 24, 48, and 72 hours.
Calcusyn 2.0 (Biosoft, Ferguson, Mo.) was used for CI analysis.

[2] = system: clonogenic hematopoietic cells; assay: Colony-forming cell (CFC) assays of bone marrow; conditions: LD-MTX 150 mg/kg; day 35; 2 × 10^4 cells/well
Method: (§3) Whole blood samples were obtained by submandibular bleeding and serum samples were harvested with serum separator tubes (BD Biosciences). Blood count and serum chemistry results were obtained by the Hemagen Analyst Benchtop Chemistry System (Hemagen Diagnostics, Inc. Columbia, Md.). Colony-forming cell (CFC) assays were performed as previously described (18).

MG-63 xenografts [3] = assay: Growth of MG-63 xenografts in athymic nude mice; assay type: in vivo; conditions: LD-MTX 150 mg/kg, single agent
Method: All animal experiments strictly followed the guidelines of Cedars-Sinai Medical Center and the National Institute of Health (NIH). Female nu/nu athymic nude mice (5-6 weeks old; average weight 21 g; specific pathogen-free) from Harlan Laboratories (Indianapolis, Ind.) were maintained in pathogen-free condition with sterilized chow and water. 5×10^6 cells of MG-63 cells were mixed with 200 μl of Matrigel solution (BD Biosciences) per injection, and the mixture was injected subcutaneously on the upper flanks of nude mice. After 24 hours, tumor size was measured, and any outliers were ruled out by one-way analysis of variance (ANOVA) test. […] The conversion was made using dose translation formula by Reagan-Shaw et al., (15). […] Body weights were monitored every 2 days. Tumor size was measured every 2 days, and the tumor volume was calculated using the following formula: A (length)×B (width)×C (height)×0.5236 (16). The experiment was stopped at day 35, and all mice were sacrificed. The presence of metastatic spread was examined macroscopically at the time of autopsy followed by histological examination. At least two tumors from each group were snap-frozen in liquid nitrogen for Western blotting.

Serum chemistry in mice = assay type: in vivo; conditions: LD-MTX 150 mg/kg; day 35
Method: as §3

Organ weight in mice = assay type: in vivo; conditions: LD-MTX 150 mg/kg; day 35
Text: (§1) At autopsy, tumors and internal organs including liver, spleen, kidneys were excised, weighed, and then fixed in 10% PBS-buffered formalin and maintained in 70% ethanol. For IHC, fixed tumors and organs were embedded in paraplast (Oxford Labware, St. Louis, Mo.), cut in 6 μm thick sections, and stained with hematoxylin and eosin (HE) for histopathological examination.

human OS cells = conditions: LD-MTX alone; xenograft studies using murine models (refs 24, 37); cited from earlier work
Blood counts in mice = assay type: in vivo; conditions: LD-MTX 150 mg/kg; day 35
Method: as §3

MG-63 xenografts [4] = assay: Immunohistochemistry of xenografts (HE, Ki-67, TUNEL); assay type: in vivo, mice; conditions: LD-MTX 150 mg/kg; day 35
Text: as §1
For Ki-67 proliferation assay, tumor sections were deparaffinized with xylene and rehydrated through graded ethanol. Endogenous peroxidase activity was blocked with 3% hydrogen peroxide in methanol. […] After incubation, tumor sections were stained with diaminobenzidine (DAB) and counterstained with hematoxylin. Terminal deoxynucleotidyl transferase dUTP nick end labeling (TUNEL) apoptosis assay was performed using ApopTaq Plus Peroxidase In Situ Apoptosis Kit (Millipore) according to the manufacturer's protocol. Percent positive cells in representative microscopic fields were counted using ImageJ (17).

[5] = Body weight and side-effects during xenograft treatment; assay type: in vivo, mice; conditions: LD-MTX 150 mg/kg
Method: All animal experiments strictly followed the guidelines of Cedars-Sinai Medical Center and the National Institute of Health (NIH). Female nu/nu athymic nude mice (5-6 weeks old; average weight 21 g; specific pathogen-free) from Harlan Laboratories (Indianapolis, Ind.) were maintained in pathogen-free condition with sterilized chow and water. 5×10^6 cells of MG-63 cells were mixed with 200 μl of Matrigel solution (BD Biosciences) per injection, and the mixture was injected subcutaneously on the upper flanks of nude mice. After 24 hours, tumor size was measured, and any outliers were ruled out by one-way analysis of variance (ANOVA) test. […] The dose of LD-MTX was the murine equivalent of the human dose of LD-MTX. The conversion was made using dose translation formula by Reagan-Shaw et al., (15). […] Body weights were monitored every 2 days. Tumor size was measured every 2 days, and the tumor volume was calculated using the following formula: A (length)×B (width)×C (height)×0.5236 (16). The experiment was stopped at day 35, and all mice were sacrificed. The presence of metastatic spread was examined macroscopically at the time of autopsy followed by histological examination. At least two tumors from each group were snap-frozen in liquid nitrogen for Western blotting.

MG-63 cells [6] = assay: Annexin V-FITC apoptosis assay, MG-63; assay type: cell-based, human; conditions: at ED50, 72 hours of exposure
Method: (§2) Cells were harvested and fixed with 70% ethanol at regular time intervals. Fixed cells were stained with propidium iodide (PI) for flow cytometry analysis using BD FACScan (BD Biosciences, San Jose, Calif.). Distribution of cell cycle was analyzed by ModFit LT V2.0 software (Verity Software House, Topsham, Me.). […] After 24, 48, and 72 hours of exposure, cells were harvested and stained with PI and fluorescein isothiocyanate (FITC) using Annexin V-FITC apoptosis detection kit (BD Biosciences) according to the manufacturer's protocol. Cells were subjected to flow cytometry analysis within one hour of staining.

MG-63 cells [7] = assay: Cell cycle analysis (PI, FACS), MG-63; assay type: cell-based, human; conditions: alone at ED50 (50 nM)
Method: as §2

BFU-E, number of colonies [2]: 7.1 ± 0.8
CFU-GEMM, number of colonies [2]: 3.4 ± 0.5
CFU-GM, number of colonies [2]: 64.6 ± 3.6
CK (Serum chemistry in mice): 183.0 ± 140 U/l
bilirubin (Serum chemistry in mice): 0.12 ± 0.00 mg/dL
cholesterol (Serum chemistry in mice): 148.5 ± 24.7 mg/dL
creatine (Serum chemistry in mice): 0.39 ± 0.21 mg/dL
globulin (Serum chemistry in mice): 1.3 ± 0.4 g/dL
total protein (Serum chemistry in mice): 4.6 ± 0.7 g/dL
uric acid (Serum chemistry in mice): 4.7 ± 0.8 mg/dL
Kidney organ weight (Organ weight in mice): 345 ± 1 mg
Liver organ weight (Organ weight in mice): 1120 ± 21 mg
Spleen organ weight (Organ weight in mice): 135 ± 7 mg
Basophils (Blood counts in mice): 0.00 ± 0.00 K/μl
Eosinophils (Blood counts in mice): 0.00 ± 0.00 K/μl
Lymphocytes (Blood counts in mice): 4.05 ± 0.58 K/μl
Monocytes (Blood counts in mice): 0.17 ± 0.04 K/μl
Neutrophills (Blood counts in mice): 0.56 ± 0.42 K/μl
RBCs (Blood counts in mice): 7.69 ± 0.16 M/μl
WBCs (Blood counts in mice): 4.80 ± 0.99 K/μl
SMILES: CN(Cc1cnc2nc(N)nc(N)c2n1)c1ccc(C(=O)N[C@@H](CCC(=O)O)C(=O)O)cc1 [MTX, methotrexate, reference compound]
EC50 (MG-63 cells [1]): 50 nM
tumor volume (MG-63 xenografts [3]): allowed the tumor volume to increase slightly from its original size
growth inhibition of human OS cells (human OS cells): < 20%
HE-stained tumors (MG-63 xenografts [4]): less number of blood vessels
mice with sluggish movements, occasional diarrhea, and a patchy skin rash [5]: 60%
body weight loss ([5]; some mice, 48 hours after MTX injection): 10%
apoptotic cells (MG-63 cells [6]): 30%
earliest sign of S-phase arrest (MG-63 cells [7]): 48 h
